Like-named read-outs stand apart in the source and are kept apart here. Bounds are passed on as bounds.

From patent US11427548B2 (Arvinas Operations, Inc., priority 2015, dated 2022) come the findings set out here.

The target of test [1] is T1, Androgen Receptor (Homo sapiens, UniProt P10275).
T1 construct: endogenous in cells; host or cells: VCaP cells
T1 sequence (P10275 1-920): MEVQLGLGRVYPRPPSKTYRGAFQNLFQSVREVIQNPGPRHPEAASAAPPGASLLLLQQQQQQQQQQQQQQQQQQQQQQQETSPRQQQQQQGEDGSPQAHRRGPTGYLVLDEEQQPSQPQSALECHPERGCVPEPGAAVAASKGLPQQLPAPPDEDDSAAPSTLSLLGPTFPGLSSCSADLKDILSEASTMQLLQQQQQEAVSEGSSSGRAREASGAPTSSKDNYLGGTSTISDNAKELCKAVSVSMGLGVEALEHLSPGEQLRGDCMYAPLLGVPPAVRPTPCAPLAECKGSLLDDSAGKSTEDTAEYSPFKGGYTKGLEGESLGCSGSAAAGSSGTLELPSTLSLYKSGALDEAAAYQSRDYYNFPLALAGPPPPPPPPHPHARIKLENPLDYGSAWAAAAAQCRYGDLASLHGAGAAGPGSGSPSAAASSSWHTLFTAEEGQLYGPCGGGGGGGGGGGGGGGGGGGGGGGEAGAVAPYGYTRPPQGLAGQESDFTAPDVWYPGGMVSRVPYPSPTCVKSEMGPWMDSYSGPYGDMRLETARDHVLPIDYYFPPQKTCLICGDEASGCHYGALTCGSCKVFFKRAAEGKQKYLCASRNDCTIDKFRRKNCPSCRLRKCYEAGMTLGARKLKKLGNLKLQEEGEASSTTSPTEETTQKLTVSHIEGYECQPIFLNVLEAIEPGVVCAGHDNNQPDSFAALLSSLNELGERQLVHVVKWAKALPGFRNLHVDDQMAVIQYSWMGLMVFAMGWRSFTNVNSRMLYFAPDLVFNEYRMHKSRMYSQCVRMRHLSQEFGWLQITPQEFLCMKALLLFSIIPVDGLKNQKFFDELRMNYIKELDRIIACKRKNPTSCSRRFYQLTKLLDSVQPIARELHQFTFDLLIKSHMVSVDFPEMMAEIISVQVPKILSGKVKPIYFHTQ
As to the kind of experiment: Androgen Receptor ELISA assay (PathScan AR ELISA) in VCaP cells: AR degradation, Dmax and DC50. It is filed as cell-based. The procedure, abridged:
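VCaP cells in phenol red-free RPMI with 5% charcoal-stripped FBS were grown at least 3 days, then given compound as 7 half-log doses in 0.1% DMSO with 0.1 nM R1881 for 24 h. Lysates went into a sandwich AR ELISA with TMB read at 450 nm.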
On the technique in general: In an ELISA, binding on a coated surface is turned into a signal by an enzyme label.

For test [2], the target named is T2, Androgen Receptor (Homo sapiens, UniProt P10275+P40337, T878A).
T2 construct: Compounds have been evaluated in this assay in LNCaP and/or VCaP cells utilizing similar protocols; endogenous in cells; host or cells: LNCaP cells
T2 sequence (P10275 whole entry T878A): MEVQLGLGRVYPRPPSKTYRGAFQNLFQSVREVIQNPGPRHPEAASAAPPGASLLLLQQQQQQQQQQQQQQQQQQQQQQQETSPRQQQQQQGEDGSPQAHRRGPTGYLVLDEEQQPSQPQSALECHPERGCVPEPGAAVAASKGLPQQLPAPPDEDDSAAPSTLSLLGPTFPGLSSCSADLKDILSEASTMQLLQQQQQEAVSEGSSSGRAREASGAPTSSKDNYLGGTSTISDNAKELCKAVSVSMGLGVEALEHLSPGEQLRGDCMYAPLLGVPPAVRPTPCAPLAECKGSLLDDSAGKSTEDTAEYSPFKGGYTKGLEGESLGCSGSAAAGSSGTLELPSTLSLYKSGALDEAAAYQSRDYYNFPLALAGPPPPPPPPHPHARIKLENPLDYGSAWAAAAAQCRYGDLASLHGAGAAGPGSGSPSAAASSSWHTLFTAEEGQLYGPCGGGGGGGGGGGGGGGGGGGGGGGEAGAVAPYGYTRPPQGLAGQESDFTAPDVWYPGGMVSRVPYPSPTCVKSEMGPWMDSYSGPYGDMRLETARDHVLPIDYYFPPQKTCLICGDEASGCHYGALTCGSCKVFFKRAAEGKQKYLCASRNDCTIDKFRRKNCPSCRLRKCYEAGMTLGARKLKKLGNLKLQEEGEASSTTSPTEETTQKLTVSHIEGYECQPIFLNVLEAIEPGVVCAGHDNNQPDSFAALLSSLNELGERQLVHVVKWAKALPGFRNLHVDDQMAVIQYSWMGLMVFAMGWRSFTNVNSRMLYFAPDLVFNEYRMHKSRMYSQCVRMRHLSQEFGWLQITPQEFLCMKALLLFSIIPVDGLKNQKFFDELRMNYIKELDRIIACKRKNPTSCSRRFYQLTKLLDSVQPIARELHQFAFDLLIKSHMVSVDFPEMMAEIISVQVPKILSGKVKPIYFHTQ
T2 sequence (P40337 whole entry): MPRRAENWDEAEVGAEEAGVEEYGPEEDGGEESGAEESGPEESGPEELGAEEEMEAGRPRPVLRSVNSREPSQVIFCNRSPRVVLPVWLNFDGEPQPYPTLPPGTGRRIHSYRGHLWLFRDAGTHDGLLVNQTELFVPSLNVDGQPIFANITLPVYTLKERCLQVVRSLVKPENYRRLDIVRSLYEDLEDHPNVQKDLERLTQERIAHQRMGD
T2 sequence (Q15369 whole entry partner): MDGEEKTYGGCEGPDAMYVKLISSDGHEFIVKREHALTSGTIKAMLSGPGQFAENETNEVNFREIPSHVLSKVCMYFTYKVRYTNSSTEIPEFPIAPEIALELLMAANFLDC
T2 sequence (Q15370 whole entry partner): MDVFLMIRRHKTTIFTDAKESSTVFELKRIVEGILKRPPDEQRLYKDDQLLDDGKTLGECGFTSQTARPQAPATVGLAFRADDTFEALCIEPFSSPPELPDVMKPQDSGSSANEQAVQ
As to the kind of experiment: Androgen Receptor ELISA assay (PathScan AR ELISA) in LNCaP cells: AR degradation, Dmax and DC50. The test is classed as cell-based. As to conditions: for DC50: concentration that caused 50% Androgen Receptor degradation; for Dmax: highest percentage of Androgen Receptor degradation observed.

Setting [3] is: read-out: VCaP DC50; concentration that caused 50% Androgen Receptor degradation, VCaP cells.
[4] abbreviates: VCaP, highest percentage of Androgen Receptor degradation observed, VCaP cells; read-out: VCaP Dmax (%).
Where [5] appears, read: concentration that caused 50% Androgen Receptor degradation, VCaP cells; read-out: VCaP DC50.

As a reminder, the Dmax is the greatest extent of degradation seen. As a reminder, the DC50 is the concentration at which degradation of the target reaches its halfway point. Take `Cc1ncsc1-c1ccc([C@H](C)NC(=O)[C@@H]2C[C@@H](O)CN2C(=O)[C@@H](NC(=O)COCCCOCCCCCOc2c(F)cc(N3C(=S)N(c4ccc(C#N)c(C(F)(F)F)c4)C(=O)C3(C)C)cc2F)C(C)(C)C)cc1` [Example 11, (2S,4R)-1-[(2S)-2-[2-(3-{[5-(4-{3-[4-cyano-3-(trifluoromethyl)phenyl]-5,5-dimethyl-4-oxo-2-sulfanylideneimidazolidin-1-yl}-2,6-difluorophenoxy)pentyl]oxy}propoxy)acetamido]-3,3-dimethylbutanoyl]-4-hydroxy-N-[(1S)-1-[4-(4-methyl-1,3-thiazol-5-yl)phenyl]ethyl]pyrrolidine-2-carboxamide]: the Dmax in test [1] (VCaP, read-out: VCaP Dmax (%)) is 51 to 70%; in test [2], over 71%. The DC50 in test [1] (setting [3]) and in test [2] was under 50 nM in each case.
In the case of `Cc1ncsc1-c1ccc(CNC(=O)[C@@H]2C[C@@H](O)CN2C(=O)[C@@H](NC(=O)COCCCOCCC(C)(C)CCOc2ccc(N3C(=S)N(c4ccc(C#N)c(C(F)(F)F)c4)C(=O)C3(C)C)cc2)C(C)(C)C)cc1` [Example 12, (2S,4R)-1-[(2S)-2-[2-(3-{[5-(4-{3-[4-cyano-3-(trifluoromethyl)phenyl]-5,5-dimethyl-4-oxo-2-sulfanylideneimidazolidin-1-yl}phenoxy)-3,3-dimethylpentyl]oxy}propoxy)acetamido]-3,3-dimethylbutanoyl]-4-hydroxy-N-{[4-(4-methyl-1,3-thiazol-5-yl)phenyl]methyl}pyrrolidine-2-carboxamide], the Dmax in test [1] (VCaP, read-out: VCaP Dmax (%)) was 26 to 50%; in test [2], over 71%. Moreover, the DC50 in test [1] (setting [3]) is under 50 nM; in test [2], 51 to 500 nM.
The corresponding values for `Cc1ncsc1-c1ccc(CNC(=O)[C@@H]2C[C@@H](O)CN2C(=O)[C@@H](NC(=O)CO[C@H](C)[C@@H](C)OCCOCCOc2ccc(N3C(=S)N(c4ccc(C#N)c(C(F)(F)F)c4)C(=O)C3(C)C)cc2)C(C)(C)C)cc1` [Example 22, (2S,4R)-1-[(2S)-2-(2-{[(2R,3R)-3-{2-[2-(4-{3-[4-cyano-3-(trifluoromethyl)phenyl]-5,5-dimethyl-4-oxo-2-sulfanylideneimidazolidin-1-yl}phenoxy)ethoxy]ethoxy}butan-2-yl]oxy}acetamido)-3,3-dimethylbutanoyl]-4-hydroxy-N-{[4-(4-methyl-1,3-thiazol-5-yl)phenyl]methyl}pyrrolidine-2-carboxamide] are 26 to 50%, 51 to 70%, 51 to 500 nM and under 50 nM.
For `Cc1ncsc1-c1ccc([C@H](C)NC(=O)[C@@H]2C[C@@H](O)CN2C(=O)[C@@H](NC(=O)COCCCCOCCCCOc2ccc(N3C(=S)N(c4ccc(C#N)c(C(F)(F)F)c4)C(=O)C3(C)C)cc2F)C(C)(C)C)cc1` [Example 25, (2S,4R)-1-[(2S)-2-(2-{4-[4-(4-{3-[4-cyano-3-(trifluoromethyl)phenyl]-5,5-dimethyl-4-oxo-2-sulfanylideneimidazolidin-1-yl}-2-fluorophenoxy)butoxy]butoxy}acetamido)-3,3-dimethylbutanoyl]-4-hydroxy-N-[(lS)-1-[4-(4-methyl-1,3-thiazol-5-yl)phenyl]ethyl]pyrrolidine-2-carboxamide], the Dmax in test [1] (VCaP, read-out: VCaP Dmax (%)) was 51 to 70%; in test [2], over 71%. For the same molecule, the DC50 in test [1] (setting [3]) and in test [2] was under 50 nM in each case.
As for `Cc1ncsc1-c1ccc(CNC(=O)[C@@H]2C[C@@H](O)CN2C(=O)[C@@H](NC(=O)COCCCOCCCCOc2ccc(N3C(=S)N(c4ccc(C#N)c(C(F)(F)F)c4)C(=O)C3(C)C)cc2F)C(C)(C)C)cc1` [Example 27, (2S,4R)-1-[(2S)-2-(2-{3-[4-(4-{3-[4-cyano-3-(trifluoromethyl)phenyl]-5,5-dimethyl-4-oxo-2-sulfanylideneimidazolidin-1-yl}-2-fluorophenoxy)butoxy]propoxy}acetamido)-3,3-dimethylbutanoyl]-4-hydroxy-N-{[4-(4-methyl-1,3-thiazol-5-yl)phenyl]methyl}pyrrolidine-2-carboxamide], the Dmax in test [1] (VCaP, read-out: VCaP Dmax (%)) was over 71%; in test [2] it was over 71%. For the same molecule, the half-maximal degradation concentration (DC50) in test [1] (setting [3]) and in test [2] was under 50 nM each time.
As to `Cc1ncsc1-c1ccc(CNC(=O)[C@@H]2C[C@@H](O)CN2C(=O)[C@@H](NC(=O)COCCCOCCCCOc2ccc(N3C(=S)N(c4ccc(C#N)c(C(F)(F)F)c4)C(=O)C3(C)C)cc2)C(C)(C)C)cc1` [Example 28, (2S,4R)-1-[(2S)-2-(2-{3-[4-(4-{3-[4-cyano-3-(trifluoromethyl)phenyl]-5,5-dimethyl-4-oxo-2-sulfanylideneimidazolidin-1-yl}phenoxy)butoxy]propoxy}acetamido)-3,3-dimethylbutanoyl]-4-hydroxy-N-{[4-(4-methyl-1,3-thiazol-5-yl)phenyl]methyl}pyrrolidine-2-carboxamide], the Dmax in test [1] (VCaP, read-out: VCaP Dmax (%)) was 51 to 70%; in test [2], over 71%. The DC50 in test [1] (setting [3]) and in test [2] was under 50 nM each time.
`Cc1ncsc1-c1ccc(CNC(=O)[C@@H]2C[C@@H](O)CN2C(=O)[C@@H](NC(=O)COCCCOCCCCOc2ccc(N3C(=S)N(c4ccc(C#N)c(C(F)(F)F)c4)C(=O)C3(C)C)cc2)C(C)C)cc1` [Example 29, (2S,4R)-1-[(2S)-2-(2-{3-[4-(4-{3-[4-cyano-3-(trifluoromethyl)phenyl]-5,5-dimethyl-4-oxo-2-sulfanylideneimidazolidin-1-yl}phenoxy)butoxy]propoxy}acetamido)-3-methylbutanoyl]-4-hydroxy-N-{[4-(4-methyl-1,3-thiazol-5-yl)phenyl]methyl}pyrrolidine-2-carboxamide]: the Dmax in test [1] (VCaP, read-out: VCaP Dmax (%)) lay within 51 to 70%; in test [2] it was 51 to 70%. For the same molecule, the DC50 in test [2] was in the range of 51 to 500 nM.
For `Cc1ncsc1-c1ccc(CNC(=O)[C@@H]2C[C@@H](O)CN2C(=O)[C@@H](NC(=O)COCCCOCCCCOc2ccc(N3C(=S)N(c4cnc(C#N)c(C(F)(F)F)c4)C(=O)C3(C)C)cc2)C(C)(C)C)cc1` [Example 30, (2S,4R)-1-[(2S)-2-(2-{3-[4-(4-{3-[6-cyano-5-(trifluoromethyl)pyridin-3-yl]-5,5-dimethyl-4-oxo-2-sulfanylideneimidazolidin-1-yl}phenoxy)butoxy]propoxy}acetamido)-3,3-dimethylbutanoyl]-4-hydroxy-N-{[4-(4-methyl-1,3-thiazol-5-yl)phenyl]methyl}pyrrolidine-2-carboxamide], the Dmax in test [1] (setting [4]) and in test [2] was over 71% throughout. In addition, the DC50 in test [1] (setting [5]) and in test [2] was under 50 nM each time.
Take `Cc1ncsc1-c1ccc(CNC(=O)[C@@H]2C[C@@H](O)CN2C(=O)[C@@H](NC(=O)COCCCOCCCCOc2ccc(N3C(=S)N(c4ccc(C#N)c(Cl)c4)C(=O)C3(C)C)cc2)C(C)(C)C)cc1` [Example 31, (2S,4R)-1-[(2S)-2-{2-[3-(4-{4-[3-(3-chloro-4-cyanophenyl)-5,5-dimethyl-4-oxo-2-sulfanylideneimidazolidin-1-yl]phenoxy}butoxy)propoxy]acetamido}-3,3-dimethylbutanoyl]-4-hydroxy-N-{[4-(4-methyl-1,3-thiazol-5-yl)phenyl]methyl}pyrrolidine-2-carboxamide]: the Dmax is over 71% in test [1] (VCaP, read-out: VCaP Dmax (%)) and over 71% in test [2]. Moreover, the DC50 in test [1] (setting [3]) and in test [2] was under 50 nM each time.
Regarding `COc1cc(N2C(=O)C(C)(C)N(c3ccc(OCCCCOCCCOCC(=O)N[C@H](C(=O)N4C[C@H](O)C[C@H]4C(=O)NCc4ccc(-c5scnc5C)cc4)C(C)(C)C)cc3)C2=S)ccc1C#N` [Example 32, (2S,4R)-1-[(2S)-2-{2-[3-(4-{4-[3-(4-cyano-3-methoxyphenyl)-5,5-dimethyl-4-oxo-2-sulfanylideneimidazolidin-1-yl]phenoxy}butoxy)propoxy]acetamido}-3,3-dimethylbutanoyl]-4-hydroxy-N-{[4-(4-methyl-1,3-thiazol-5-yl)phenyl]methyl}pyrrolidine-2-carboxamide], the values for the Dmax in test [1] (setting [4]) and in test [2] were 51 to 70% and over 71%, respectively. Further, the DC50 in test [1] (setting [5]) and in test [2] was under 50 nM throughout.
